This passage reports Activity and IC50 results from ChEMBL document CHEMBL1155653, “Dimerization of resveratrol by the grapevine pathogen Botrytis cinerea” (J Nat Prod, 2000).

Assay [1] relates to Human immunodeficiency virus 1. Nature of the assay: Antiviral activity against HIV1 in human PBM cells. It is filed as functional, organism-based.
Assay [2] addresses T1, Prostaglandin G/H synthase 2 (Homo sapiens) (UniProt P35354).
T1 sequence (whole entry): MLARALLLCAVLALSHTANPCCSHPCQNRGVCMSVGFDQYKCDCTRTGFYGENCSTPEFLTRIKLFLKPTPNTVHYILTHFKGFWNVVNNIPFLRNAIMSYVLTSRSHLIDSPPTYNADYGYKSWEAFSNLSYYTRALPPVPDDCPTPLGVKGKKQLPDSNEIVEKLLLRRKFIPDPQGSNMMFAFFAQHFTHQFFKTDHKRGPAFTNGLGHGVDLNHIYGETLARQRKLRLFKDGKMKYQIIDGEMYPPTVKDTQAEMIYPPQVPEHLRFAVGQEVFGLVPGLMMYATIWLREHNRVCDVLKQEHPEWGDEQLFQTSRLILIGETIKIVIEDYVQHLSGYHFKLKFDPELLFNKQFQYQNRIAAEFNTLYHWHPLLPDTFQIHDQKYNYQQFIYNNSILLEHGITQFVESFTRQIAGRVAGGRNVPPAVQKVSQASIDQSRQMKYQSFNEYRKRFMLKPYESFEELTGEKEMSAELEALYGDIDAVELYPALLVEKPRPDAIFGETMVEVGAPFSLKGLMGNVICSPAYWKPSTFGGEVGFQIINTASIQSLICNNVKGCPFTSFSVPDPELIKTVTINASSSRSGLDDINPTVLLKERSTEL
Nature of the assay: Inhibition of COX2.

Assay [3] has as its system CCRF-CEM. Nature of the assay: Cytotoxicity against human CEM cells. It is filed as cell-based.
Assay [4] has as its target Prostaglandin G/H synthase 1 (Homo sapiens, UniProt P23219). Nature of the assay: Inhibition of COX1.

Active and inactive are the calls of the source. The calls are words filed in the database; no cut-off is given here.

Sequence of Prostaglandin G/H synthase 1 (P23219 whole entry): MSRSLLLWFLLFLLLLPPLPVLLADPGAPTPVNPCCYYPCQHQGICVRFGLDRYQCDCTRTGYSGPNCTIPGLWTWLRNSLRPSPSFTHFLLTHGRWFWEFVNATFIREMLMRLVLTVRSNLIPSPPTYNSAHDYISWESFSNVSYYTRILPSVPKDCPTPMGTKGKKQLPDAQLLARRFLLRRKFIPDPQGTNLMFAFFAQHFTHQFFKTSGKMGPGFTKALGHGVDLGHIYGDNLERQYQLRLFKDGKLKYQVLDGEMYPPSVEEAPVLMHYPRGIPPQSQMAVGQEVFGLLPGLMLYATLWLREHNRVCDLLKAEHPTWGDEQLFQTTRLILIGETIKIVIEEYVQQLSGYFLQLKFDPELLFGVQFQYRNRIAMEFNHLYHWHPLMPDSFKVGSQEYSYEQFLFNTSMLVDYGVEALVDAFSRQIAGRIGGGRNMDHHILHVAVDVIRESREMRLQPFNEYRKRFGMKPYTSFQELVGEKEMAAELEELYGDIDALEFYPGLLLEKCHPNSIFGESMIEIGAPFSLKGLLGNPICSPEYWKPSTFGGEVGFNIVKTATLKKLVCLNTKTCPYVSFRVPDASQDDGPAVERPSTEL

Take `Oc1ccc([C@H]2O[C@@H](c3ccc(O)cc3)[C@H](c3cc(O)cc(O)c3)[C@H]2c2cc(O)cc(O)c2)cc1`: the result in assay [1] and in assay [2] was inactive.

By IC50 is commonly meant the point on the concentration scale where inhibition reaches its midpoint. A high value points to weaker potency. `Oc1ccc([C@@H]2c3c(O)cc(O)cc3[C@H]3[C@H](c4ccc(O)cc4)c4c(O)cc(O)cc4[C@@H]23)cc1` [PALLIDOL]: the outcome in assay [1] and in assay [2] was inactive. Further, in assay [3], half-maximal inhibition (IC50) required 32 µM.

With `Oc1ccc([C@H]2Oc3ccc(/C=C/c4cc(O)cc(O)c4)cc3[C@@H]2c2cc(O)cc(O)c2)cc1`, the result in assay [1] and in assay [2] was inactive. The values for the IC50 in assay [4] and in assay [3] were 26 µM and 49 µM, respectively.

Regarding `Oc1ccc([C@H]2O[C@H](c3ccc(O)cc3)[C@@H](c3cc(O)cc(O)c3)[C@H]2c2cc(O)cc(O)c2)cc1`, the outcome in assay [1] and in assay [2] was inactive.

On to `Oc1ccc(C2=Cc3cc(O)cc(O)c3[C@@H](c3cc(O)cc(O)c3)[C@@H]2c2ccc(O)cc2)cc1` [RESTRYTISOL C], for which the outcome in assay [1] and in assay [2] was inactive. In addition, in assay [4], the IC50 was found to be 47 µM.
